Reference: publication PMC11213733, “Computational approaches identify a transcriptomic fingerprint of drug-induced structural cardiotoxicity” (Cell Biology and Toxicology, 2024)

Experiments:
cardiac microtissues [1] = assay: ATP depletion (CellTiter Glo Luminescent Cell Viability Assay) in cardiac microtissues; type: cell-based, human; conditions: the concentration is the IC30 of ATP depletion, or cell death caused
Procedure: Cellular ATP concentrations were also assessed using the CellTiter Glo® Luminescent Cell Viability Assay as per the manufacturer’s instructions (Promega).

cardiac microtissues [2] = assay: Transcriptomic profiling (mRNA-seq) and DESeq2 differential gene expression analysis in cardiac microtissues; conditions: absolute log2(Fold-Change) > 1, FDR p ≤ 0.05
[3] = ref FDA label, cited from earlier work

CS(=O)(=O)CCNCc1ccc(-c2ccc3ncnc(Nc4ccc(OCc5cccc(F)c5)c(Cl)c4)c3c2)o1 [Lapatinib]
Transcriptomic high concentration (µM) = IC30 of ATP depletion (cardiac microtissues [1]): 5.53 µM | number of significant differentially expressed genes, 6hr high (cardiac microtissues [2]; 6 hr, high concentration): 27 | number of significant differentially expressed genes, 6hr low (cardiac microtissues [2]; 6 hr, low concentration): 17 | number of significant differentially expressed genes, 48hr high (cardiac microtissues [2]; 48 hr, high concentration): 13 | number of significant differentially expressed genes, 48hr low (cardiac microtissues [2]; 48 hr, low concentration): 40 | number of significant differentially expressed genes, 72hr high (cardiac microtissues [2]; 72 hr, high concentration): 29 | number of significant differentially expressed genes, 72hr low (cardiac microtissues [2]; 72 hr, low concentration): 18 | Structural cardiotoxin? ([3]; FDA label references heart failure or a decrease in left ventricular ejection fraction): Y | Functional cardiotoxin? ([3]; compound annotation): Y
